On the set-up of the data set: species or system Yorkshire-desi crossbred pigs. The settings on record: pig, in vivo. The source says: To assess the feasibility and safety of the developed device, in vivo implantation of nanostent was done in the porcine bile duct under fluoroscopic guidance via ERCP procedure. In this embodiment, in a total of 14 animals (Yorkshire-desi crossbred pigs), nanostents and control SEMS (SEMS without nanoyarns) were implanted and analyzed for two-time points (3 and 5 months). The fluoroscopic images of the control and nanostent implanted bile duct reveal the proper deployment of the stents in the bile duct. This points to the feasibility of implantation of the nanoyarn-integrated SEMS in vivo.
Endoscopic follow-up was performed in the animals at regular intervals. Blood and bile were collected for analysis of the drug content at intermittent time periods. These were then tested for the presence of GEM and its metabolite by HPLC. GEM and its metabolite DFDU could not be detected in blood up to the limit of its detection i.e., 300 ng. […] The drug content in bile was also undetectable, owing to the drug release happening in a continuously flowing bile fluid. However, the presence of remnant drug could be measured in the nanoyarns taken from explanted stents at 3 and 5 months, to be ˜1000 μg and 50 μg respectively. This confirms that the nanoyarn integrated with the stent can provide a localized drug release over prolonged time periods.

Counter-ions that a name gives are not always drawn. Like-named read-outs stand apart in the source and are kept apart here.

Take `O=c1ccn(C2OC(CO)C(O)C2(F)F)c(=O)[nH]1` (stereo not drawn) [DFDU]: the drug/metabolite in blood is under 300 ng.
On to `Nc1ccn([C@@H]2O[C@H](CO)[C@@H](O)C2(F)F)c(=O)n1` [GEM, Gemcitabine hydrochloride], for which the “drug content in bile” value is reported as “undetectable”. Moreover, under “Yorkshire-desi crossbred”, the drug/metabolite in blood is under 300 ng.

(Values after US20250058027A1, “Nanoyarns as Drug-Releasing Facilitator” (Amrita Vishwa Vidyapeetham, priority 2023, published 2025).)
